Assays:
[1] = test system: 2019 novel coronavirus (SARS-CoV-2) original strain; assay: Replication inhibitory activity against SARS-CoV-2 original strain in Vero E6 cells (qRT-PCR); format: cell-based
[2] = target: novel coronavirus envelope protein (2-E) ion channel (Severe acute respiratory syndrome coronavirus 2, UniProt P0DTC4); assay: Novel coronavirus envelope protein (2-E) ion channel activity test, planar lipid bilayer (BLM); format: biochemical, SARS-CoV-2; conditions: room temperature, 1, 10, 50, 100 μM, read-out: Inhibition against 2-E ion channels IC50
Sequence of novel coronavirus envelope protein (2-E) ion channel (P0DTC4 whole entry, looked up): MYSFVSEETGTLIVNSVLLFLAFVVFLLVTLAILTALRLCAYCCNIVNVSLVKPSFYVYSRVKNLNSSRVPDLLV

Vero E6 cells = assay: Cytotoxicity test on Vero E6 cells (CCK8); format: cell-based
Protocol: In this embodiment, the half toxicity concentration of each embodiment on Vero E6 cells was determined by CCK8 kit analysis (CC50).

[3] = test system: IL-6, IL-1β, CXCL9 mRNA in Raw 264.7 cells; assay: mRNA levels of inflammatory indicators in LPS-induced inflammation model of Raw264.7 cells (Q-PCR); format: cell-based; conditions: 1 μg/ml LPS, 1 μM compound, 16 hours
Protocol: In this example, the effect of the compounds of the present invention on the inflammation level of the LPS-induced inflammation model of Raw 264.7 cells was analyzed by cell viability in combination with inflammatory factors; cell viability was analyzed by CCK-8 assay; and mRNA expression levels of inflammation-related indicators were detected by a real-time quantitative PCR (Q-PCR) method. Raw 264.7 cells were purchased from ATCC; CCK-8 kit was purchased from Meilunbio, item no. MA0218-3; LPS was purchased from Sigma, item no. L2630.
(§1) Experimental methods: first, 5*10^4 cells/well Raw 264.7 cells were placed in 12-well plates and incubated overnight. On the second day, 0.1% DMSO was added to the control cells, 1 μg/ml LPS as well as 0.1% DMSO was added to the model group, 1 μg/ml LPS as well as 1 μM of the compounds (oxyacanthine hydrochloride (oxy), 1, 2, tetrandrine (tet), 3, 4, 6, 58) was added to the treatment group, and the 12-well plates were sterilized and incubated in a constant temperature incubator for 16 hours. Cellular mRNA was extracted by lysis using Trizol (Yisheng, 10606ES60) and detected by real-time quantitative PCR after reverse transcription.

[4] = test system: inflammatory factor mRNA in Raw 264.7 cells; assay: mRNA levels of inflammatory indicators in TNF-α-induced inflammation model of Raw264.7 cells (Q-PCR); format: cell-based; conditions: 10 ng/ml TNF-α, 1 μM compound, 16 hours
Protocol: In this embodiment, the effect of compounds on TNF-α-induced inflammation levels in Raw 264.7 cells was analyzed by cell viability combined with inflammatory factor expression levels; cell viability was analyzed by CCK-8 assay; and mRNA expression levels of inflammation-associated indicators were detected by real-time quantitative PCR (Q-PCR) method. Raw 264.7 cells were purchased from ATCC, CCK-8 kit was purchased from Meilunbio, item number MA0218-3, TNF-α was purchased from Merck, item no. GF314.
as §1, with “10 ng/ml TNF-α” for “1 μg/ml LPS”, “transcription, the primers are the same as in Table 2.” for “transcription.”

[5] = test system: TNF-α and IL1β mRNA in A549 cells; assay: mRNA levels of injury indicators in TNF-α-induced A549 cell injury (Q-PCR); format: cell-based; conditions: 10 ng/ml TNF-α, 1 μM compound, 24 hours
Protocol: In this example, cell viability combined with cell death-associated molecules were used to analyze the effect of compounds on the level of TNF-α-induced injury in A549 lung epithelial cells. Cell injury was observed by microscopy; cell viability was analyzed by CCK-8 assay; and mRNA expression levels of injury-related indicators were detected by real-time quantitative PCR (Q-PCR) method. A549 cells were purchased from ATCC, CCK-8 kit was purchased from Meilunbio, item no. MA0218-3, and LPS was purchased from Sigma, item no. L2630.
as §1, with “A549” for “Raw 264.7”, “10 ng/ml TNF-α” for “1 μg/ml LPS”, “(oxy,” for “(oxyacanthine hydrochloride (oxy),”, “tet,” for “tetrandrine (tet),”, “24” for “16”

[6] = test system: A549 lung epithelial cells; assay: Anti TGF-β1-induced fibrosis assay in A549 lung epithelial cells (microscopy, Western Blot); format: cell-based; conditions: 10 ng/ml TGF-β1, 1 μM compound
Protocol: Cell injury was observed by microscopic observation; cell viability was analyzed by CCK-8 assay; and protein expression levels of fibrosis-related indicators were detected by Western Blot method. A549 cells were purchased from ATCC; CCK-8 kit was purchased from Meilunbio, item number MA0218-3; TGF-β1 was purchased from MCE, item number HY-P70543; primary antibodies: Collagen was purchased from ARG21965, item no. arigobio; α-smooth muscle actin was purchased from CST, item no. mAb #19245; VIMENTN was purchased from CST, item no. mAb #5741; GAPDH was purchased from Yeasen, item no. 30201ES20.
Experimental methods: first, 8000 cells/well A549 cells were placed in 96-well plates and incubated overnight. On the second day, 0.1% DMSO was added to the control cells, 10 ng/ml TGF-β1 as well as 0.1% DMSO was added to the model group, 10 ng/ml TGF-β1 as well as 1 μM of the compounds (oxy, 1, 2, tet, 3, 4, 6, 58) was added to the treatment group, and the 96-well plates were sterilized and incubated in a constant temperature incubator for 72 hours. Finally, cell injury and growth were observed using a microscope; the viability of the cells was detected by CCK-8 kit.

[7] = cited from earlier work

## oxyacanthine hydrochloride [reference compound]
[1]; read-out: Inhibition against viral replication of the original strain EC50
  EC50: > 10 µM
[2]
  IC50: > 100 µM
Vero E6 cells; Vero E6 cells, CCK8 kit
  IC50: < 30 µM
[3]
  inhibition of inflammatory factors (IL-6, IL-1β, CXCL9 mRNA) in LPS-induced inflammation model: significant inhibition
[4]
  inhibition of inflammatory factors (mRNA) in TNF-α-induced inflammation model: significant inhibition
[5]
  inhibition of injury (damage) factors mRNA in TNF-α-induced A549 lung cell injury model: significantly inhibited
[6]
  alleviation of TGF-β1-induced fibrosis in A549 lung epithelial cells (Collagen1, α-SMA by WB): partially alleviate fibrosis

## COc1cc2c3cc1Oc1c(OC)c(OC)cc4c1[C@H](Cc1ccc(cc1)Oc1cc(ccc1O)C[C@H]3N(C)CC2)N(C)CC4 [Oxyacanthine, oxyacanthine, reference compound]
[1]
  antiviral activity against novel coronaviruses (background statement): weak antiviral activity
Vero E6 cells; inventors' screening of natural products
  cytotoxicity (background statement): high cytotoxicity
[7]; ethanol, chloroform, ether, dilute acid
  solubility in ethanol, chloroform, ether, dilute acid: soluble
[7]; water
  solubility in water: almost insoluble
